The target in one data set is T1, human 5-HT1A receptors (Homo sapiens, UniProt P08908).
T1 construct: expressed in transfected cells; host or cells: CHO cells
T1 sequence (P08908 1-422): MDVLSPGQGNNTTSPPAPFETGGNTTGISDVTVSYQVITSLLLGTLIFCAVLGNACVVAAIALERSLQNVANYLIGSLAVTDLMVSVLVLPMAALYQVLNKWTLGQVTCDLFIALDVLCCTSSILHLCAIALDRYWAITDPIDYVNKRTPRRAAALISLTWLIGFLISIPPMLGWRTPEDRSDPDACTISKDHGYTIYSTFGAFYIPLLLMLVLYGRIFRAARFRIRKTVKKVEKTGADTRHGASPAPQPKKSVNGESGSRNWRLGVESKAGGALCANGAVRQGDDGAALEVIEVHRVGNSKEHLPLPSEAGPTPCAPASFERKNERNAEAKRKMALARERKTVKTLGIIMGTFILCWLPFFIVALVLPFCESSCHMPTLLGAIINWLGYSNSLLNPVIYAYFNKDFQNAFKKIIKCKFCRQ
As to the kind of experiment: [3H] 8-OH-DPAT displacement from the 5-HT1A serotonin receptor (CHO cells). The format is binding. The settings on record: for inhibition at 1 µM: @ 1000 nM, printed in the 5-HT1A Ki column. From the text:
High affinity for the serotonin 5-HT1A receptor was established by testing the claimed compound's ability to displace [^3H] 8-OH-DPAT (dipropylaminotetralin) from the 5-HT1A serotonin receptor following a modification of the procedure of Hall et al., J. Neurochem. 44, 1685 (1985) which utilizes CHO cells stably transfected with human 5-HT1A receptors.

For a further data set, the target named is T2, 5-HT transporter (Rattus norvegicus, UniProt P31652).
T2 construct: from tissue; host or cells: rat frontal cortex membranes (male Sprague-Dawley rats)
T2 sequence (P31652 whole entry): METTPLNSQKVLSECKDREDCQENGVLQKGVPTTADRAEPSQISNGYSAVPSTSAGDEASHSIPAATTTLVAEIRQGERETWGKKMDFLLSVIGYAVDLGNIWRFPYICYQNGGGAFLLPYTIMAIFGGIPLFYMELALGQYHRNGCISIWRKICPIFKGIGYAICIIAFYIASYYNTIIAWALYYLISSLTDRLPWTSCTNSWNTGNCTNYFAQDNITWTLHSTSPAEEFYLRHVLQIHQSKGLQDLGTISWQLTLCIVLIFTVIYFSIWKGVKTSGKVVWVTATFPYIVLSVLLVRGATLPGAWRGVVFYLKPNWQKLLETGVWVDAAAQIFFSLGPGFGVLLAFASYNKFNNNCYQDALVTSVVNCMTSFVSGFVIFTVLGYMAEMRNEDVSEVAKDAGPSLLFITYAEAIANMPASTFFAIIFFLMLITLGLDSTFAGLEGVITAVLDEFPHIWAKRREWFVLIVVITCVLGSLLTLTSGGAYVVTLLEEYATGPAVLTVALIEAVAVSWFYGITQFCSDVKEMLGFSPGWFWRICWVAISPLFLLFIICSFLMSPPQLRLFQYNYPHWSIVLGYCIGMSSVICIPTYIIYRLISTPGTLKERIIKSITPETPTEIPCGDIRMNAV
Kind of data set: Rat Brain 3H-Paroxetine Binding Assay (RB 5HT Transporter). As to the method: Rat Brain ^3H-Paroxetine Binding Assay (RB 5HT Transporter):
This assay was used to determine a compound's affinity of the 5-HT transporter.
A protocol similar to that used by Cheetham et. al. (Neuropharmacol. 1993, 32, 737) was used. Briefly, frontal cortical membranes prepared from male S.D. rats were incubated with ^3H-parxetine (0.1 nM) for 60 min. at 25° C. All tubes also contained either vehicle, test compound (one to eight concentrations), or a saturating concentration of fluoxetine (10 μM) to define […]. All reactions are terminated by the addition of ice cold Tris buffer followed by rapid filtration using a Tom Tech filtration device to separate bound from free ^3H-paroxetine. Bound radioactivity was quantitated using a Wallac 1205 Beta Plate® counter. Nonlinear regression analysis was used to determine IC50 values which were converted to Ki values using the method of Cheng and Prusoff (Biochem. Pharmacol. 1973, 22, 3099);

The next data set has as its target T3, Human 5-HT Transporter (Homo sapiens, UniProt P31645).
T3 construct: endogenous in cells; host or cells: Jar cells (human carcinoma), treated with staurosporine
As to the kind of experiment: Inhibition of 3H-5-HT Uptake by cells Possessing the Human 5-HT Transporter (HC 5HT Transporter). The format is cell-based. As to the method: [Staurosporine greatly increases the expression of the 5-HT-transporter.] On the day of assay, vehicle, excess of fluoxetine, or test compound is added to various wells on the plate. All wells then receive ^3H-5-HT and are incubated at 37° C. for 5 min. The wells are then washed with ice cold 50 mM Tris HCl (pH 7.4) buffer and aspirated to remove free ^3H-5-HT. 25 μl of 0.25 M NaOH is then added to each well to lyse the cells and 75 μl scintillation cocktail (Microscint™ 20) added prior to quantitation on a Packard TopCount machine. Tubes with vehicle represent total possible uptake, radioactivity counted in tubes with fluoxetine represent nonspecific binding/uptake and is subtracted from the total possible uptake to give total possible specific uptake. This nonspecific binding (usual low in number) is then subtracted from the counts obtained in wells with various test compounds (or different concentrations of test drug) to give specific uptake in the presence of drug. Specific uptake is then expressed as a % of control values and is analyzed using nonlinear regression analysis (Prizm) to determine IC50 values. If the compound is active at inhibiting 5-HT uptake, its counts will be close to that obtained with fluoxetine.

Setting [1] is: Jar cells, 3H-5-HT uptake, read-out: HC 5HT Transporter IC50.
The mark [2] stands for this setting: [3H] 8-OH-DPAT displacement, CHO cells with human 5-HT1A receptors, read-out: 5-HT1A Ki.
Where [3] appears, read: rat frontal cortical membranes, 3H-paroxetine, read-out: RB 5HT Transporter Ki.

pIC50, pKi: −log10 of the molar value. Read-outs that look alike come from different tables or passages of the source.

We go through 24 compounds from patent US7332506B2, “Substituted-3-indolyl-4-piperidino-alkyl heterocycles for the treatment of depression” (Wyeth, priority 2002, dated 2008).

T3 sequence (P31645 whole entry): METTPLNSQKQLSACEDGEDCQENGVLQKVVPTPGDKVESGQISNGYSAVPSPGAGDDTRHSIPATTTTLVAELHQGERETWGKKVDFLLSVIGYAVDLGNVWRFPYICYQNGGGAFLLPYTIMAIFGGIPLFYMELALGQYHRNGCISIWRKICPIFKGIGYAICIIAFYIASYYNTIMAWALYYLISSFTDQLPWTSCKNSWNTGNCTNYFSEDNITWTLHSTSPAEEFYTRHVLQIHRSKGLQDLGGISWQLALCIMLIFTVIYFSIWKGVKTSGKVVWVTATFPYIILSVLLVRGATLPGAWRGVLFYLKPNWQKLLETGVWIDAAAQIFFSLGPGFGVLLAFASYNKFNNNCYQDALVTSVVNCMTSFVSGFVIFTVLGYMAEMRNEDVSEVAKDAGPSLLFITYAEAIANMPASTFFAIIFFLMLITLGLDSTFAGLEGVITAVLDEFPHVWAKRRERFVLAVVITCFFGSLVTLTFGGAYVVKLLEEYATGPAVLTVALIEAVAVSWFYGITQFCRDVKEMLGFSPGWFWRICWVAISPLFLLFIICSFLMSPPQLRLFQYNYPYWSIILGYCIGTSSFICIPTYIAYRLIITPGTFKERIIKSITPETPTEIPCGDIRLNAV

On to `O=c1n(CCCN2CC=C(c3c[nH]c4ccccc34)CC2)nc2ccccn12`, for which the melting point is 173.3 °C.

Compound `O=c1n(CCN2CC=C(c3c[nH]c4ccccc34)CC2)nc2ccccn12` gave a melting point of 170.4 °C.

Regarding `O=c1n(CCCCN2CC=C(c3c[nH]c4ccccc34)CC2)nc2ccccn12`, the melting point turned out to be 123.2 °C.

In turn, `COc1cc2ncn(CCN3CC=C(c4c[nH]c5ccccc45)CC3)c(=O)c2cc1OC` [Example 1, 3-[2-(4-(1H-indol-3-yl)-3,6-dihydro-1(2H)-pyridinyl)ethyl]-6-7-dimethoxy-4(3H)-quinazolinone] showed a melting point of 219 °C. On human 5-HT1A receptors, this compound gave a pKi of 7.08. On 5-HT transporter, this compound had a pKi of 8.54. Also, at Human 5-HT Transporter (setting [1]), the pIC50 was 6.90.

In the case of `COc1cc2ncn(CCN3CCC(c4c[nH]c5ccccc45)CC3)c(=O)c2cc1OC` [Example 2, 3-{2-[4-(1H-indol-3-yl)-1-piperidinyl]ethyl}-6-7-dimethoxy-4(3H)-quinazolinone], the melting point amounted to 230 °C. Moreover, the pKi on human 5-HT1A receptors (setting [2]) was 7.14. Further, the pKi on 5-HT transporter (setting [3]) is 7.44. Moreover, the pIC50 on Human 5-HT Transporter (setting [1]) is 6.56.

In turn, `COc1cc2ncn(CCN3CC=C(c4c[nH]c5ccc(F)cc45)CC3)c(=O)c2cc1OC` [Example 3, 3-[2-(4-(5-fluoro-1H-indol-3-yl)-3,6-dihydro-1(2H)-pyridinyl)ethyl]-6-7-dimethoxy-4(3H)-quinazolinone] gave a melting point of 210 °C. For the same compound, on human 5-HT1A receptors (setting [2]), the pKi was 7.09. Moreover, on 5-HT transporter (setting [3]), the pKi was 8.34.

For the compound `COc1cc2ncn(CCCCN3CC=C(c4c[nH]c5ccccc45)CC3)c(=O)c2cc1OC` [Example 4, 3-[4-(4-(1H-indol-3-yl)-3,6-dihydro-1(2H)-pyridinyl)butyl]-6-7-dimethoxy-4(3H)-quinazolinone], the pKi at human 5-HT1A receptors (setting [2]) is 6.67; at 5-HT transporter it was 8.90. The pIC50 on Human 5-HT Transporter (setting [1]) was 6.88.

With `COc1cc2ncn(CCCCN3CCC(c4c[nH]c5ccccc45)CC3)c(=O)c2cc1OC` [Example 5, 3-{4-[4-(1H-indol-3-yl)-1-piperdinyl]butyl}-6,7-dimethoxy-4(3H)-quinazolinone], the pKi at human 5-HT1A receptors (setting [2]) is 7.06; on 5-HT transporter (setting [3]), 8.39. In addition, on Human 5-HT Transporter (setting [1]), the pIC50 was 7.26.

Regarding `COc1cc2ncn(CCCN3CC=C(c4c[nH]c5ccccc45)CC3)c(=O)c2cc1OC` [Example 6, 3-[3-(4-(1H-indol-3-yl)-3,6-dihydro-1(2H)-pyridinyl)propyl]-6-7-dimethoxy-4(3H)-quinazolinone], the pKi on human 5-HT1A receptors (setting [2]) is 6.54; on 5-HT transporter, 9.10. Besides, the pIC50 at Human 5-HT Transporter is 7.36.

In the case of `COc1cc2ncn(CCCN3CCC(c4c[nH]c5ccccc45)CC3)c(=O)c2cc1OC` [Example 7, 3-{3-(4-(1H-indol-3-yl)-1-piperidinyl]propyl}-6-7-dimethoxy-4(3H)-quinazolinone], the negative-log Ki (pKi) at human 5-HT1A receptors (setting [2]) was 6.70; on 5-HT transporter (setting [3]) it was 7.96. For the same compound, at Human 5-HT Transporter (setting [1]), the pIC50 is 6.76.

On to `COc1cc2ncn(CCCN3CC=C(c4c[nH]c5ccc(F)cc45)CC3)c(=O)c2cc1OC` [Example 8, 3-[3-(4-(5-fluoro-1H-indol-3-yl)-3,6-dihydro-1(2H)-pyridinyl)propyl]-6-7-dimethoxy-4(3H)-quinazolinone], for which the melting point stood at 120 °C. This compound yielded an inhibition at 1 µM at human 5-HT1A receptors of 31%. The compound further had a pKi at 5-HT transporter of 8.72.

`O=c1c2cc(Cl)cc(Br)c2ncn1CCCN1CC=C(c2c[nH]c3ccccc23)CC1` [Example 9, 8-bromo-6-chloro-3-[3-(4-(1H-indol-3-yl)-3,6-dihydro-1(2H)-pyridinyl)propyl]-4(3H)-quinazolinone]: the melting point is 192 °C. This compound registered an inhibition at 1 µM on human 5-HT1A receptors of 4%. At 5-HT transporter, this compound gave a pKi of 9.51.

On human 5-HT1A receptors, `O=c1c2cc(Cl)ccc2ncn1CCCN1CC=C(c2c[nH]c3ccccc23)CC1` [Example 10, 6-chloro-3-[3-(4-(1H-indol-3-yl)-3,6-dihydro-1(2H)-pyridinyl)propyl]-4(3H)-quinazolinone] gave an inhibition at 1 µM of 7%. This compound also gave a pKi at 5-HT transporter of 8.94. In addition, the pIC50 at Human 5-HT Transporter (setting [1]) is 6.57.

On human 5-HT1A receptors, `O=c1c2cc(Cl)ccc2ncn1CCCN1CCC(c2c[nH]c3ccccc23)CC1` [Example 11, 6-chloro-3-{3-[4-(1H-indol-3-yl)-1-piperidinyl]propyl}-4(3H)-quinazolinone] came in with an inhibition at 1 µM of 26%. For the same compound, the pKi on 5-HT transporter (setting [3]) was 7.40. Moreover, the negative-log IC50 (pIC50) on Human 5-HT Transporter (setting [1]) was 5.72.

As for `O=c1c2ccccc2ncn1CCN1CC=C(c2c[nH]c3ccccc23)CC1` [Example 12, 3-[2-(4-(1H-indol-3-yl)-3,6-dihydro-1(2H)-pyridinyl)ethyl]-4(3H)-quinazolinone], the pKi is 7.42 at human 5-HT1A receptors (setting [2]) and 8.26 on 5-HT transporter (setting [3]). Further, the pIC50 on Human 5-HT Transporter (setting [1]) was 7.06.

In the case of `O=c1c2ccccc2ncn1CCN1CCC(c2c[nH]c3ccccc23)CC1` [Example 13, 3-{2-[4-(1H-indol-3-yl)-1-piperidinyl]ethyl}-4(3H)-quinazolinone], the inhibition at 1 µM at human 5-HT1A receptors amounted to 42%. Moreover, the pKi at 5-HT transporter (setting [3]) was 7.43. Besides, the pIC50 at Human 5-HT Transporter (setting [1]) was 6.19.

Consider `O=c1c2ccccc2nnn1CCN1CC=C(c2c[nH]c3ccccc23)CC1` [Example 16, 3-[2-(4-(1H-indol-3-yl)-3,6-dihydro-1(2H)-pyridinyl)ethyl]-1,2,3-benzotriazin-4(3H)-one], for which the pKi on human 5-HT1A receptors (setting [2]) was 7.25; at 5-HT transporter (setting [3]), 8.45. Also, on Human 5-HT Transporter (setting [1]), the negative logarithm of the IC50 (pIC50) is 7.43.

For `O=c1c2ccccc2nnn1CCN1CCC(c2c[nH]c3ccccc23)CC1` [Example 17, 3-{2-[4-(1H-indol-3-yl)-1-piperidinyl)ethyl}-1,2,3-benzotriazin-4(3H)-one], the pKi at human 5-HT1A receptors (setting [2]) was 6.93; at 5-HT transporter (setting [3]), 7.80. Further, the pIC50 on Human 5-HT Transporter (setting [1]) is 6.72.

As to `Cn1cc(C2CCN(CCn3nnc4ccccc4c3=O)CC2)c2ccccc21` [Example 18, 3-{2-[4-(1-methyl-1H-indol-3-yl)-1-piperidinyl]ethyl}-1,2,3-benzotriazin-4(3H)-one], the values for the pKi on human 5-HT1A receptors (setting [2]) and on 5-HT transporter (setting [3]) were 7.09 and 7.68, respectively. Further, the pIC50 at Human 5-HT Transporter (setting [1]) is 6.64.

`O=c1c2ccccc2nnn1CCCN1CC=C(c2c[nH]c3ccccc23)CC1` [Example 19, 3-[3-(4-(1H-indol-3-yl)-3,6-dihydro-1(2H)-pyridinyl)propyl]-1,2,3-benzotriazin-4(3H)-one]: the negative logarithm of the Ki (pKi) is 6.50 on human 5-HT1A receptors (setting [2]) and 9.82 on 5-HT transporter. The compound further showed a pIC50 at Human 5-HT Transporter of 7.80.

On to `O=c1c2ccccc2nnn1CCCN1CCC(c2c[nH]c3ccccc23)CC1` [Example 20, 3-{3-[4-(1H-indol-3-yl)-1-piperidin]propyl}-1,2,3-benzotriazin-4(3H)-one], for which testing at 1 µM at human 5-HT1A receptors gave an inhibition of 49%. Besides, the negative logarithm of the Ki (pKi) at 5-HT transporter (setting [3]) is 8.00.

`Cn1cc(C2=CCN(CCCn3nnc4ccccc4c3=O)CC2)c2ccccc21` [Example 21, 3-[3-(4-(1-methyl-1H-indol-3-yl)-3,6-dihydro-1(2H)-pyridinyl)propyl]-1,2,3-benzotriazin-4(3H)-one] yielded a melting point of 70 °C. Besides, the pKi on human 5-HT1A receptors (setting [2]) is 6.20. Also, the pKi at 5-HT transporter was 9.25.

`O=c1n(CCCN2CCC(c3c[nH]c4ccccc34)CC2)nc2ccccn12` [Example 23, 2-{3-[4-(1H-Indol-3-yl)-piperidin-1-yl]-propyl}-2H-[1,2,4]triazolo[4,3-a]pyridin-3-one] displayed a melting point of 111.7 °C.

As to `O=c1n(CCN2CCC(c3c[nH]c4ccccc34)CC2)nc2ccccn12` [Example 25, 2-{2-[4-(1H-Indol-3-yl)-piperidin-1-yl]-ethyl}-2H-[1,2,4]triazolo[4,3-a]pyridin-3-one], the melting point was determined as 142 °C.
